{
  "source": "patent US20080279897A1",
  "about": "“Method of Treating Cellular Damage” (MEDVET SCIENCE PTY. LTD., priority 2005, published 2008)",
  "key": {"sphingosine kinase": {"tested_on": "sphingosine kinase", "assay": "Sphingosine kinase activity in vitro (vascular endothelial cells)", "format": "cell-based"}, "SphK": {"tested_on": "SphK", "assay": "SphK activity in aorta and heart of STZ-induced diabetic rats", "format": "in vivo, rat", "details": "STZ-induced diabetic rats treated with insulin, 2 wk post-onset of diabetes", "protocol": "Male Sprague-Dawley rats weighing 270-290 g were housed in a room under controlled temperature conditions (22° C.) and 12/12-hr of light/dark cycles. Diabetes was induced with 80 mg/kg streptozotocin (STZ) (Sigma-Aldrich) dissolved in citrate buffer (20 mM, pH 4.5) that was administered as a single intraperitoneal injection. Control rats were injected with an equivalent volume of the vehicle only. After injection (24 h), diabetes was diagnosed by the development of hyperglycaemia (>14 mmol/L blood glucose). One-half of the diabetic rats were randomly selected to receive insulin treatment (Linplant, one implant/200 g body wt; LinShin, Canada). Blood glucose levels were monitored every 4 days using Glucostix reagent strips (Boehringer Mannheim, Indianapolis, Ind.). Two weeks after the onset of diabetes, rats were killed for the study. […]\nAs described previously (Xia et al., 1999, J. Biol. Chem. 274:34499-34505), SphK activity was routinely determined using D-erythro-sphingosine (Biomol, Plymouth Meeting, Pa.) and [γ^32P]ATP (Geneworks, Adelaide, Australia) as substrates, and defined as picomoles of S1P formed per min per mg protein. The formation of S1P in vivo was measured in the permeabilized cells as previously described (Xia et al., 1998, Proc. Natl. Acad. Sci. U.S.A 95:14196-14201)."}, "[1]": {"assay": "Glycemic control in STZ-induced diabetic rats", "format": "in vivo, rat", "details": "insulin pump, within several hours", "protocol": "Male Sprague-Dawley rats weighing 270-290 g were housed in a room under controlled temperature conditions (22° C.) and 12/12-hr of light/dark cycles. Diabetes was induced with 80 mg/kg streptozotocin (STZ) (Sigma-Aldrich) dissolved in citrate buffer (20 mM, pH 4.5) that was administered as a single intraperitoneal injection. Control rats were injected with an equivalent volume of the vehicle only. After injection (24 h), diabetes was diagnosed by the development of hyperglycaemia (>14 mmol/L blood glucose). One-half of the diabetic rats were randomly selected to receive insulin treatment (Linplant, one implant/200 g body wt; LinShin, Canada). […] […] All experiments were conducted in accordance with the PC-2 procedure of Institute of Medical and Veterinary Science (IMVS) and approved by the IMVS Animal Ethics Committee."}},
  "note": "Entries after “also recorded” stand apart in the source; their conditions may differ.",
  "data": [
    {"substance": "insulin", "values": [
      {"measurement": "inhibitory effect on sphingosine kinase activity in vitro", "setting": "sphingosine kinase", "value": "no inhibitory effect"},
      {"measurement": "SphK activity in aorta of diabetic rats", "setting": "SphK", "value": "significant reduction; also recorded: completely prevented"},
      {"measurement": "SphK activity in heart of diabetic rats", "setting": "SphK", "value": "significant reduction; also recorded: completely prevented"},
      {"measurement": "glycemic control", "setting": "[1]", "value": "near euglycemia"}
    ]}
  ]
}
